How the values were obtained:
Assay type in all cases: cell-based
[1] = molecular target: T1, human TLR8 (Homo sapiens, UniProt Q9NR97); assay: TLR8 inhibition reporter assay (HEK-Blue cells, SEAP reporter, R848 stimulation); details: HEK-Blue cells overexpressing human TLR8, SEAP reporter, R848 15.9 μM
T1 construct: host or cells: HEK-Blue cells (HEK293-derived reporter line)
T1 sequence (Q9NR97 27-1041): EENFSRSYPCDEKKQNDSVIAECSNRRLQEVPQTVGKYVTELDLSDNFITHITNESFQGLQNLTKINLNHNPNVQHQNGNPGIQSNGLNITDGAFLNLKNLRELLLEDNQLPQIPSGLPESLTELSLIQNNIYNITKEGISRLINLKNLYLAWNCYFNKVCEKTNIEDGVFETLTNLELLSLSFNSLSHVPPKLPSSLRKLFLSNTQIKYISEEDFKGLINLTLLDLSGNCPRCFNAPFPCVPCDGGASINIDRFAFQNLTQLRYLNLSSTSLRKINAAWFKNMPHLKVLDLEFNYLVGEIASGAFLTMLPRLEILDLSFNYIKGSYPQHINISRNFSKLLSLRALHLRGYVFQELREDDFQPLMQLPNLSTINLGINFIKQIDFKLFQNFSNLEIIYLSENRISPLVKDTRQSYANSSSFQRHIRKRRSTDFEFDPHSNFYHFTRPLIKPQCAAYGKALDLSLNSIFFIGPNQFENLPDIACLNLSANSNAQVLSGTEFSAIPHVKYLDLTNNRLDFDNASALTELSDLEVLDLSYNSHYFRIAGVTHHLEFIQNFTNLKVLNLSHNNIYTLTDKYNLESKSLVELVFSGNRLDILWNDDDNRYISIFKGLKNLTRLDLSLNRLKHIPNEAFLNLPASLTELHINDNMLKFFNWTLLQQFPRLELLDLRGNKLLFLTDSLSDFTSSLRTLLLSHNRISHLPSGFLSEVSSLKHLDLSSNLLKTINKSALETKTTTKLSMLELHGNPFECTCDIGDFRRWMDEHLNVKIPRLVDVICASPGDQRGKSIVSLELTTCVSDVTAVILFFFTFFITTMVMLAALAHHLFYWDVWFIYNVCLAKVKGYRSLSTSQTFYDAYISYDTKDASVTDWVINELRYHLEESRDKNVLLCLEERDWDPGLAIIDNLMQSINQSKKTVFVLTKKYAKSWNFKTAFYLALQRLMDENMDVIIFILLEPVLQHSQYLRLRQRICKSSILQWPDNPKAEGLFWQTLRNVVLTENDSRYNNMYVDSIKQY
Procedure, shortened: (§1)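 HEK-Blue cells overexpressing the receptor, with NF-κB/AP-1-driven SEAP, were pre-treated 30 min at room temperature with compound (0.05 nM–50 μM), then stimulated with gardiquimod 7.5 μM (TLR7), R848 15.9 μM (TLR8) or ODN2006 5 nM (TLR9). SEAP was read after 22 h at 37 °C as percent inhibition.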

[2] = molecular target: T2, human TLR7 (Homo sapiens, UniProt Q9NYK1); assay: TLR7 inhibition reporter assay (HEK-Blue cells, SEAP reporter, gardiquimod stimulation); details: HEK-Blue cells overexpressing human TLR7, SEAP reporter, gardiquimod 7.5 μM
T2 construct: host or cells: HEK-Blue cells (HEK293-derived reporter line)
T2 sequence (Q9NYK1 27-1049): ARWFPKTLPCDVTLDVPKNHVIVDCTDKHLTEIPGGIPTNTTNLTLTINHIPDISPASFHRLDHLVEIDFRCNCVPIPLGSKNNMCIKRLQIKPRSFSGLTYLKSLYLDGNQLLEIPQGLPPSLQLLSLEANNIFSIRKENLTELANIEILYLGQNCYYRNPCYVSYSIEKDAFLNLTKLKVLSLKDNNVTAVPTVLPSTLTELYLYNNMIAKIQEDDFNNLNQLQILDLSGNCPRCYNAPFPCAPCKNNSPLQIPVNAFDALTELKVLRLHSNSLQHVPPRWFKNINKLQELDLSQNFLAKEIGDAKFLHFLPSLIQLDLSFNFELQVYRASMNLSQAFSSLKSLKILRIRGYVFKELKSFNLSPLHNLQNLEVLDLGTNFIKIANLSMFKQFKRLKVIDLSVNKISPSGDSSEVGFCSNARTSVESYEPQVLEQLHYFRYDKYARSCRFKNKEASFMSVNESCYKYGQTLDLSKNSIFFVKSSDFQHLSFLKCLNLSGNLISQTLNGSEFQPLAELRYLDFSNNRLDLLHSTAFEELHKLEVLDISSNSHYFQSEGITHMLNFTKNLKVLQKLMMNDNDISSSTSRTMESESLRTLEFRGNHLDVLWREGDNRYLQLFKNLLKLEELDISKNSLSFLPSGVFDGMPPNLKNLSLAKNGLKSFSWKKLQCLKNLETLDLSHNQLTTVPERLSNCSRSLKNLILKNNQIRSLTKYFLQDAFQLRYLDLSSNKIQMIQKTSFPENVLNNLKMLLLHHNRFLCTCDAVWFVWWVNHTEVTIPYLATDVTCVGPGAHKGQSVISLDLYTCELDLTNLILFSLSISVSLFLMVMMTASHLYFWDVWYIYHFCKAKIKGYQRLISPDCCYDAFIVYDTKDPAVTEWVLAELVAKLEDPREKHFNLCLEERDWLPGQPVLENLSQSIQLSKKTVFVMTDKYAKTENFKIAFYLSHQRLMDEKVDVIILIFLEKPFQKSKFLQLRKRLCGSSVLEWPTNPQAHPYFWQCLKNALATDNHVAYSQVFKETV
Procedure, shortened: as §1

[3] = molecular target: T3, human TLR9 (Homo sapiens, UniProt Q9NR96); assay: TLR9 inhibition reporter assay (HEK-Blue cells, SEAP reporter, ODN2006 stimulation); details: HEK-Blue cells overexpressing human TLR9, SEAP reporter, ODN2006 5 nM
T3 construct: host or cells: HEK-Blue cells (HEK293-derived reporter line)
T3 sequence (Q9NR96 26-1032): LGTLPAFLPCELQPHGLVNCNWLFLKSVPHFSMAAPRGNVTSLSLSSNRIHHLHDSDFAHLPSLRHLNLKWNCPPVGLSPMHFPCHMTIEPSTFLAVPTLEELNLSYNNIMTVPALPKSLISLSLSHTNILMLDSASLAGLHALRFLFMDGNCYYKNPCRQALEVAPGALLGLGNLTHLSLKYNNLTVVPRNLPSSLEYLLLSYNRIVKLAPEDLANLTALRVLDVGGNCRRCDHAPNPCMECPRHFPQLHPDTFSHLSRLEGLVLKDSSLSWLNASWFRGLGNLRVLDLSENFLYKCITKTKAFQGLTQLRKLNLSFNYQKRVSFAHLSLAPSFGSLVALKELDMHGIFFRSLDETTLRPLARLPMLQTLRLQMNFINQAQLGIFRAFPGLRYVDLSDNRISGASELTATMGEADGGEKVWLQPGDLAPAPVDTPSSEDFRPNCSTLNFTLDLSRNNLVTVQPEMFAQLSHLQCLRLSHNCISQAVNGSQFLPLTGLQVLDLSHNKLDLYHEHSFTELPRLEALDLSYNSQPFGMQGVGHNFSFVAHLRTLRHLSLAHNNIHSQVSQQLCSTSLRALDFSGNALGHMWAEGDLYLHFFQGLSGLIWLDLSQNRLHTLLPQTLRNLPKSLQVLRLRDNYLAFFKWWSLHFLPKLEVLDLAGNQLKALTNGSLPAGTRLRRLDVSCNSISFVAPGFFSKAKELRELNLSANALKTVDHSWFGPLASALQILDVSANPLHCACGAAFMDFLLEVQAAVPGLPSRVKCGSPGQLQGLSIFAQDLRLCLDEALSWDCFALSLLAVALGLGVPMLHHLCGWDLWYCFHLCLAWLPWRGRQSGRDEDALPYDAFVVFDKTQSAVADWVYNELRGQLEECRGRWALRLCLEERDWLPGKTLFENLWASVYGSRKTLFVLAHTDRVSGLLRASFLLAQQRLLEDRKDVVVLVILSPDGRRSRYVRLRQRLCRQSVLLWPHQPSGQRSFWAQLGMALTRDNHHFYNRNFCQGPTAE
Procedure, shortened: as §1

**Q.** What does the source list for Cc1c(-c2ccnc3c2ccn3C)[nH]c2ccc(C3CCN(C4CCN(C(C)C)CC4)CC3)cc12 [Example 844, 4-(5-(1′-isopropyl-[1,4′-bipiperidin]-4-yl)-3-methyl-1H-indol-2-yl)-1-methyl-1H-pyrrolo[2,3-b]pyridine]?
**A.** IC50 [1]: < 100 nM; IC50 [2]: 1000 to 50000 nM; IC50 [3]: < 100 nM

**Q.** With CCc1c(-c2ccnc3[nH]ncc23)[nH]c2ccc(C3CCN(CC4(N)CC4)CC3)cc12 [Example 657, 1-((4-(3-ethyl-2-(1H-pyrazolo[3,4-b]pyridin-4-yl)-1H-indol-5-yl)piperidin-1-yl)methyl)cyclopropan-1-amine] as the compound, how does the IC50 [1] read?
**A.** Its IC50 is < 100 nM.

**Q.** And the IC50 [2]?
**A.** Its IC50 is 100 to 1000 nM.

**Q.** And the IC50 [3]?
**A.** Its IC50 is 100 to 1000 nM.

**Q.** For CNCCN1CCC(c2ccc3[nH]c(-c4ccc5ncccc5c4)c(C)c3c2)CC1 [Example 666, N-methyl-2-(4-(3-methyl-2-(quinolin-6-yl)-1H-indol-5-yl)piperidin-1-yl)ethan-1-amine], which IC50 [1] is on record?
**A.** Its IC50 is > 3130 nM.

**Q.** And the IC50 [2]?
**A.** The IC50 was 1000 to 50000 nM.

**Q.** And the IC50 [3]?
**A.** The IC50 was 100 to 1000 nM.

**Q.** With Cc1c(-c2[nH]c3ccc(C4CCNCC4)cc3c2C(C)C)ccc2c1cnn2C [Example 94, 5-(3-isopropyl-5-(piperidin-4-yl)-1H-indol-2-yl)-1,4-dimethyl-1H-indazole] as the compound, how does the IC50 [1] read?
**A.** Its IC50 is < 100 nM.

**Q.** What about the IC50 [2] of the same compound?
**A.** The IC50 was < 100 nM.

**Q.** And the IC50 [3]?
**A.** Its IC50 is 1000 to 50000 nM.

**Q.** How did the IC50 [1] turn out when Cc1nc2c(-c3[nH]c4ccc(C5CCNCC5)cc4c3C(C)C)ccc(C)n2n1 [Example 151, 8-(3-isopropyl-5-(piperidin-4-yl)-1H-indol-2-yl)-2,5-dimethyl-[1,2,4]triazolo[1,5-a]pyridine] was run?
**A.** Its IC50 is 100 to 1000 nM.

**Q.** What about the IC50 [2] of the same compound?
**A.** Its IC50 is 100 to 1000 nM.

**Q.** And the IC50 [3]?
**A.** The IC50 was 100 to 1000 nM.

**Q.** For CCN(CC)C(=O)C1CCCN(CC(=O)N2CCC(c3ccc4[nH]c(-c5ccnc6[nH]ccc56)c(C(C)C)c4c3)CC2)C1 (stereo not drawn) [Example 568, N,N-diethyl-1-(2-(4-(3-isopropyl-2-(1H-pyrrolo[2,3-b]pyridin-4-yl)-1H-indol-5-yl)piperidin-1-yl)-2-oxoethyl) piperidine-3-carboxamide], which IC50 [1] is on record?
**A.** Its IC50 is < 100 nM.

**Q.** What about the IC50 [2] of the same compound?
**A.** The IC50 was < 100 nM.

**Q.** And the IC50 [3]?
**A.** Its IC50 is 1000 to 50000 nM.

**Q.** How did the IC50 [1] turn out when Cc1cc2nc(-c3[nH]c4ccc(C5CCN(CC(=O)N(C)C)CC5)cc4c3C(C)C)c(F)cn2n1 [Example 438, 2-(4-(2-(6-fluoro-2-methylpyrazolo[1,5-a]pyrimidin-5-yl)-3-isopropyl-1H-indol-5-yl)piperidin-1-yl)-N,N-dimethylacetamide] was run?
**A.** The IC50 was 100 to 1000 nM.

**Q.** And the IC50 [2]?
**A.** The IC50 was 100 to 1000 nM.

**Q.** What about the IC50 [3] of the same compound?
**A.** The IC50 was 1000 to 50000 nM.

**Q.** With Cc1cn2cc(-c3[nH]c4ccc(C5CCN(C(C)C)CC5)cc4c3C(C)C)cc(C(F)(F)F)c2n1 [Example 943, 6-(3-isopropyl-5-(1-isopropylpiperidin-4-yl)-1H-indol-2-yl)-2-methyl-8-(trifluoromethyl)imidazo[1,2-a]pyridine] as the compound, how does the IC50 [1] read?
**A.** The IC50 was 100 to 1000 nM.

**Q.** And the IC50 [2]?
**A.** The IC50 was < 100 nM.

**Q.** What about the IC50 [3] of the same compound?
**A.** The IC50 was 100 to 1000 nM.

**Q.** Which IC50 [1] does the source give for CC(C)c1c(-c2cnc3ncccn23)[nH]c2ccc(C3CCNCC3)cc12 [Example 64, 3-(3-isopropyl-5-(piperidin-4-yl)-1H-indol-2-yl)imidazo[1,2-a]pyrimidine] here?
**A.** Its IC50 is < 100 nM.

**Q.** And the IC50 [2]?
**A.** Its IC50 is < 100 nM.

**Q.** What about the IC50 [3] of the same compound?
**A.** The IC50 was 100 to 1000 nM.

**Q.** For Cc1c(-c2[nH]c3ccc(C4CCN(C(=O)CN(C)C)CC4)cc3c2C(C)C)nn2ncnc2c1C [Example 453, 1-(4-(2-(7,8-dimethyl-[1,2,4]triazolo [1,5-b]pyridazin-6-yl)-3-isopropyl-1H-indol-5-yl)piperidin-1-yl)-2-(dimethylamino)ethan-1-one], which IC50 [1] is on record?
**A.** The IC50 was < 100 nM.

**Q.** What about the IC50 [2] of the same compound?
**A.** The IC50 was < 100 nM.

**Q.** What about the IC50 [3] of the same compound?
**A.** The IC50 was 1000 to 50000 nM.

**Q.** Which IC50 [1] does the source give for CC(C)c1c(-c2n[nH]c3nc[nH]c(=O)c23)[nH]c2ccc(C3CCNCC3)cc12 [Example 21, 3-(3-isopropyl-5-(piperidin-4-yl)-1H-indol-2-yl)-1,5-dihydro-4H-pyrazolo[3,4-d]pyrimidin-4-one] here?
**A.** The IC50 was 100 to 1000 nM.

**Q.** And the IC50 [2]?
**A.** Its IC50 is 1000 to 50000 nM.

**Q.** And the IC50 [3]?
**A.** Its IC50 is 1000 to 50000 nM.

**Q.** For CNC(=O)CN1CCC(c2ccc3[nH]c(-c4cc(F)c5nccn5c4)c(CC(F)F)c3c2)CC1 [Example 411, 2-(4-(3-(2,2-difluoroethyl)-2-(8-fluoroimidazo[1,2-a]pyridin-6-yl)-1H-indol-5-yl)piperidin-1-yl)-N-methylacetamide], which IC50 [1] is on record?
**A.** The IC50 was 100 to 1000 nM.

**Q.** What about the IC50 [2] of the same compound?
**A.** Its IC50 is < 100 nM.

**Q.** And the IC50 [3]?
**A.** Its IC50 is 1000 to 50000 nM.

Source: patent publication US11739098B2 (BRISTOL-MYERS SQUIBB COMPANY, priority 2017, dated 2023)
